Measurements taken from patent US20220290200A1, “GENETICALLY MODIFIED HOST CELLS PRODUCING GLYCOSYLATED CANNABINOIDS” (OCTARINE BIO IVS, priority 2019, published 2022).

Columns and labels:
[1] = Thermodynamic aqueous solubility assay in PBS; conditions: for Thermodynamic solubility: room temperature, PBS buffer pH 7.4, duplicate
Experimental: Alternatively, aqueous solubility was determined by a thermodynamic solubility assay as follows. 2.5 mg of test compound was weighed in a glass vial, 0.5 mL of phosphate buffered saline (pH=7.4) was added and the sample briefly vortexed. Samples were then incubated overnight at room temperature on a vial roller system to dissolve as much of the compound as possible into solution. Following incubation, the aqueous solutions were filtered in duplicate ([…]) and the filtrate diluted 1:1 with 100% methanol. Samples were further diluted where necessary and analyzed by HPLC. The concentration of compound in solution was determined by comparison to a standard curve made with authentic analytical standards.

[2] = Chemical stability under acidic, alkaline, oxidative and heat stress (HPLC); conditions: for % of substrate remaining in solution: HPLC, relative to control at 30° C. pH 7.0; for percent remaining after 24 h exposure relative to a control at ambient conditions: alkaline conditions (NaOH, final pH 12.5); for release of CBD aglycone (stability of the glucoside bond): any condition (acidic, alkaline, oxidative, heat)
Experimental: Alternatively, chemical stability of cannabinoid glycosides was determined under alkaline, acidic, oxidative and heat stress as follows. 25 mM stock solutions of cannabinoids and cannabinoid glycosides were prepared in 100% methanol. 15 μL is mixed with 5 μL of 400 mM HCl solution (final pH=1.1), 400 mM NaOH solution (Final pH=12.5), 12% H2O2 solution (final concentration 3%), or H2O pH 7.0. […] A control under ambient conditions was also prepared where 15 μL of the cannabinoid or cannabinoid glycoside was added to 5 μL H2O pH 7.0 and incubated at 30° C. After 24 h samples were placed on ice and 60 μL of ice-cold 100% methanol is added to each sample. Samples were centrifuged and transferred to HPLC vials for analysis. The remaining concentration of cannabinoid or cannabinoid glycoside was quantified by comparing to authentic analytical standards. Determining the presence of degradation products were determined by comparing with authentic analytical standards.
CBD, CBD-1′-O-β-D-glucoside (OB1), and CBD-1′-O-β-D-glucosyl-3′-O-β-D-glucoside (OB6) were exposed to oxidative, alkaline, acidic and heat conditions as described above, and their degradation quantified by HPLC analysis by measuring the amount of compound remaining in solution after 24 h exposure to a given condition and expressed as percent (%) remaining after 24 h exposure relative to a control at ambient conditions. Also measured was the accumulation of the known CBD degradation product THC, expressed as percent accumulated after 24 h exposure.

[3] = Hepatic microsomal stability; conditions: for t1/2 / CLint: human liver microsomes 0.5 mg/mL, 1 μM compound, NADPH and UDP-glucuronic acid
Experimental: Hepatic microsomal stability of cannabinoid glycosides were determined by incubating 2 μM of molecule with HepaRG™ human liver microsomes (Sigma) supplemented with NADPH at 37° C. Samples were taken at 0, 5, 15, 30, 45, and 60 minute intervals and analyzed as described above. Verapamil (rapid clearance) and Diazepam (low clearance) were used as references.
Alternatively, hepatic microsomal stability of cannabinoid glycosides was determined as follows. HepaRG™ pooled human liver microsomes (Sigma) (final protein concentration=0.5 mg/mL) were mixed with alamethicin (25 μg/mg), 0.1 M phosphate buffer (pH=7.4) and the test compound (1 μM final in DMSO) and incubated at 37° C. prior to addition of NADPH (final concentration 1 mM) and UDP-glucuronic acid (final concentration 1 mM) to initiate the reaction. The compound was incubated for 0, 5, 15, 30, and 45 minutes and the reaction terminated by adding acetonitrile in a 1:3 ratio (v/v). Reactions were centrifuged at 3000 rpm for 20 min at 4° C. to precipitate the protein. Following protein precipitation, internal standards were added to the sample supernatants and analyzed by LC-MS to measure the concentration of compound remaining at each time point, quantification was achieved by comparison to authentic analytical standards.
In vitro hepatic microsomal stability was performed for CBD, CBD-1′-O-β-D-glucoside (OB1), and CBD-1′-O-β-D-glucosyl-3′-O-β-D-glucoside (OB6) as described above and the intrinsic clearance (CLint) and half-life (t1/2) of each compound was determined.

Compound	solubility ([1]; phosphate buffered saline, pH 7.4, aqueous buffer, thermodynamic from solid) [mM]	Thermodynamic solubility [1]	% of substrate remaining in solution ([2]; Acidic (pH 1.1), 24 h) [%]	% of substrate remaining in solution ([2]; Alkaline (pH 12.5), 24 h) [%]	% of substrate remaining in solution ([2]; Heat (60° c.), 24 h) [%]	% of substrate remaining in solution ([2]; Oxidative (H2O2 3%), 24 h) [%]	accumulation of degradation product THC ([2]; acidic and alkaline conditions, 24 h)	percent remaining after 24 h exposure relative to a control at ambient conditions ([2]; 30° C.) [%]	stability under stress conditions ([2]; all conditions tested (acidic, alkaline, oxidative, heat), 24 h)	t1/2 [3] [min]	microsomal CLint at 1 μM ([3]; human, microsomes, pH 7.4) [µL/min/mg]	% accumulation of THC-1′-O-β-D-glucoside (OB20) ([2]; Acidic (pH 1.1), 24 h) [%]	accumulation of degradation product THC-1′-O-β-D-glucoside (OB20) ([2]; acidic conditions (HCl, final pH 1.1), 30° C., 24 h)	release of CBD aglycone (stability of the glucoside bond) ([2]; 24 h)	CLint [3] [μL/min/mg protein]	accumulation of THC or THC-glucoside ([2]; any of the conditions (acidic, alkaline, oxidative, heat), 24 h)	decrease in intrinsic clearance versus CBD ([3]; human liver microsomes) [fold]	increase in half-life versus CBD ([3]; human liver microsomes) [fold]
C=C(C)[C@@H]1CCC(C)=C[C@H]1c1c(O)cc(CCCCC)cc1O [CBD, cannabidiol, reference compound]	≤ 0.0005	Below Detection Limit	63.90	2.26	72.76	70.56	degrades to THC	2.26	unstable under all conditions tested	3.77	368 ± 0.684							
C=C(C)[C@@H]1CCC(C)=C[C@H]1c1c(O)cc(CCCCC)cc1O[C@@H]1O[C@H](CO)[C@@H](O)[C@H](O)[C@H]1O [OB1, CBD-1′-O-β-D-glucoside]			80.02	100.27	84.35	92.98		100		1.24		1.61	a small amount of THC-1′-O-β-D-glucoside (OB20) was detected	no CBD aglycone was detected	1110 ± 0.312			
C=C(C)[C@@H]1CCC(C)=C[C@H]1c1c(O[C@@H]2O[C@H](CO)[C@@H](O)[C@H](O)[C@H]2O)cc(CCCCC)cc1O[C@@H]1O[C@H](CO)[C@@H](O)[C@H](O)[C@H]1O [OB6, CBD-1′-O-β-D-glucosyl-3′-O-β-D-glucoside]		11.4 ± 0.75 mM	91.90	100.62	80.79	74.98		100		188				no CBD aglycone was detected	7.39 ± 1.32	no THC or THC-glucoside was detected	50	50
